Results from patent US20090311214A1, “COMPOSITIONS AND METHODS FOR THE INNATE IMMUNE RESPONSE PATHWAY” (UNIVERSITY OF MARYLAND, BALTIMORE, priority 2008, published 2009).
“Also recorded” adds a separate entry of the source.

Columns and labels:
Type in all cases: cell-based, human
PBMC [1] = assay: PBMC pretreated with IL-1ra before stimulation with PTG or β-glucan
Description: Considering the essential role for IL-1β in the IL-23/TH17 innate response in purified monocytes, we predicted that IL-1β regulates the cytokine profile triggered by PTG and β-glucan in whole PBMC as well. To this end, PBMC were pretreated with IL-1ra for 1 h prior to stimulation with PTG or β-glucan, or incubated with 5 ng/ml IL-1β alone for 20 h.
(§1) PBMC cultures. PBMC from CD patients and HLA-DQ2^+ healthy controls was tested as follows. 10^6 PBMC/ml were incubated in RPMI-1640 supplemented with 10% heat inactivated hAB, 1% L-glutamine, 1% Pen-Strep and 20 mM Hepes Buffer (cRPMI) with and without PTG, β-glucan, 5 ng/ml rhIL-1β, or 10 μg/ml pooled synthetic 20 mers of α-gliadin in 96 well U-bottom plates (Denville Scientific Inc.) at 37° C. in 5% CO2 for 6, 24, 48, or 72 h. Alternatively, 10^6 PBMC/ml were incubated with 0.5 μg/ml rhIL-1ra at 37° C. in 5% CO2 for 1 h then cultured with and without 100 μg/ml PTG or 500 μg/ml β-glucan for an additional 20 h. Cell-free culture supernatants were harvested for cytokine and chemokine analysis.
(§2) Cytokine & chemokine analysis. Cell-free culture supernatants were analyzed for IL-1β, IL-1ra, IL-6, IL-12p70, IFNγ, TNFα (Bio-Plex Cytokine Assay kit, Bio-Rad) or IL-1β, IL-23 (ELISA kit, eBiosciences), IL-1ra and CCL20 (Quantikine ELISA kit, R & D Systems) following the manufacturers' protocols. Appropriate standard curves were included in each assay.

monocytes [2] = assay: Purified monocytes pretreated with IL-1ra before PTG or β-glucan
Description: To better understand the contribution of IL-1 signaling in the IL-23/TH17 innate response to PTG in monocyte and immDC populations, we pretreated monocytes, immDC and IFNγ-treated immDC with the naturally occurring anti-inflammatory IL-1 receptor antagonist (IL-1ra) for 1 h prior to stimulation with PTG or β-glucan as a positive control, or incubated with increasing doses of exogenous IL-1β for 20 h. […] Contradictory to the monocyte response, addition of IL-1ra or IL-1β to IFNγ-treated immDC had no effect on the IL-23/TH17 profile induced by PTG exposure (FIG. 3D), providing further indication that monocytes exposed to gluten and not their progeny DC have the potential to activate autoreactive memory TH17 cells. Indeed, other groups have reported in human studies that activated monocytes, which produce IL-1β and IL-23, are the best inducers of TH17 cells (Evans et al., Proc. Natl. Acad. Sci., U.S.A., 104(43):17034-17039 (2007)).
(§3) Elutriated monocyte cultures. 5×10^5 monocytes/ml were cultured in cRPMI with and without 100 μg/ml PTG, 100 μg/ml β-glucan, or 0.5-50 ng/ml rhIL-1β in 96 well U-bottom plates at 37° C. in 5% CO2 for 20 h. Alternatively, 5×10^5 monocytes/ml were incubated with 0.5 μg/ml rhIL-1ra at 37° C. in 5% CO2 for 1 h then cultured with and without 100 μg/ml PTG or β-glucan for an additional 20 h. Cell-free culture supernatants were harvested for cytokine and chemokine analysis.
as §2

IFNγ-treated immDC = IFNγ-treated immDC exposed to PTG with or without IL-1ra or IL-1β; details: addition to IFNγ-treated immDC
Description: IL-23 is only secreted by activated APC such as monocytes, macrophages and DC, which reduces the number of possible cell sources considerably. To determine which of these cell populations was the source of IL-23 in response to PTG, purified lymphocytes, monocytes, or monocyte-derived DC cultured with GM-CSF and IL-4, were incubated in the presence or absence of PTG for 24 h, at which time supernatants were collected for IL-23, IL-1β, IL-6, IFNγ and TNFα analysis. […] Since neither PTG nor β-glucan activated cytokine production in DC differed from monocytes, we examined the response after pretreatment with IFNγ, given that this treatment has been necessary for the IL-23 response to a variety of agents including β-glucan. immDC were cultured in the presence or absence of IFNγ for 18 h prior to addition of PTG, after which supernatants were subjected to cytokine analysis as described above. […] Moreover, these findings provide insight to the mechanisms in which IFNγ counteracts IL-1 dependent TH17 responses. […]

monocytes [3] = assay: Purified lymphocytes, monocytes or monocyte-derived DC with PTG, β-glucan or IL-1β
Description: IL-23 is only secreted by activated APC such as monocytes, macrophages and DC, which reduces the number of possible cell sources considerably. To determine which of these cell populations was the source of IL-23 in response to PTG, purified lymphocytes, monocytes, or monocyte-derived DC cultured with GM-CSF and IL-4, were incubated in the presence or absence of PTG for 24 h, at which time supernatants were collected for IL-23, IL-1β, IL-6, IFNγ and TNFα analysis. […] Since neither PTG nor β-glucan activated cytokine production in DC differed from monocytes, we examined the response after pretreatment with IFNγ, given that this treatment has been necessary for the IL-23 response to a variety of agents including β-glucan. immDC were cultured in the presence or absence of IFNγ for 18 h prior to addition of PTG, after which supernatants were subjected to cytokine analysis as described above. […] Moreover, these findings provide insight to the mechanisms in which IFNγ counteracts IL-1 dependent TH17 responses.
While IL-1β is produced by many cell types, IL-23 production is thought to be restricted to activated APC. […] To investigate this hypothesis, we exposed purified lymphocytes, monocytes, or monocyte-derived DC (cultured with GM-CSF and IL-4 for 72 h) to PTG overnight and analyzed the cell-free culture supernatants for IL-23 and related “Th17” polarizing mediators.
as §3, with “Cell-free culture supernatants were harvested for cytokine and chemokine analysis.” left out
as §2, with “Appropriate standard curves were included in each assay.” left out

PBMC [4] = assay: PBMC cultures with PTG, β-glucan, IL-1β or α-gliadin peptides; cytokine/chemokine analysis of supernatants
Description: We cultured PBMC from HLA-DQ2 positive and HLA-DQ2 negative healthy persons in the presence or absence of 100 ug/ml of PTG or β-D-glucan from barley as a positive control for 20 h. Cell-free culture supernatants were harvested and analyzed for proinflammatory cytokines IL-1β, IL-6, IFNγ, TNFα (Luminex) IL-23 and the TH17 chemokine CCL20/MIP-3α (ELISA).
as §1, §2

[5] = monocytes, IL-1ra 1 h prior to stimulation
[6] = PBMC, 5 ng/ml IL-1β alone, 20 h

Substance | IL-23 and IL-1β responses to PTG and β-glucan (PBMC [1]; 0.5 μg/ml IL-1ra 1 h prior, stimulation 20 h, mean of 10 experiments) | induction of IL-23 in response to PTG and β-glucan (PBMC [1]; PBMC from CD patients) | levels of IL-1β in PBMC treated with PTG or β-glucan (PBMC [1]; PBMC from CD patients) | IL-23, TNF-α, IL-6 and CCL20 responses to PTG and β-glucan (PBMC [1]; PBMC from healthy individuals, IL-1ra 1 h prior to stimulation, 20 h) | reduction of the IL-1β response (PBMC [1]; PBMC, IL-1ra 1 h prior to PTG or β-glucan, 20 h) | IL-23, TNFα, IL-6 and CCL20 responses to PTG (monocytes [2]; [5]) | cytokine response to β-glucan (monocytes [2]; [5]) | IL-23 responses to PTG and β-glucan (monocytes [2]; purified monocytes, 0.5 μg/ml IL-1ra, 20 h) | IL-1β and IL-23 responses generated by monocytes exposed to gliadin (monocytes [2]; summary statement) | effect on the IL-23/TH17 profile induced by PTG exposure (IFNγ-treated immDC) | cell source of IL-23, IL-1β, CCL20, TNFα and IL-6 secretion (monocytes [3]; purified lymphocytes, monocytes, monocyte-derived DC, 100 μg/ml PTG, 24 h) | dose dependence of IL-1β and IL-23 production (PBMC [4]; PBMC from CD patients, 25-500 μg/ml, 24 h) | IL-23 response in HLA-DQ2+ compared to HLA-DQ2 negative healthy individuals (PBMC [4]; PBMC, 24 h) | concentration at which detectable levels of IL-23 were achieved (PBMC [4]; dose response curves, PBMC from CD patients, 24 h) | IL-23 response of monocytes to exogenous IL-1β (monocytes [3]; 0.5, 5 or 50 ng/ml rhIL-1β, 20 h) | capacity to activate IL-23 secretion, reduced compared to PTG or β-glucan (monocytes [3]; purified monocytes, 20 h, means of 5 experiments) | CCL20 and IL-6 produced compared with PTG (PBMC [4]; [6]) | IL-23 and TNFα produced compared with PTG (PBMC [4]; [6]) | capacity to stimulate IL-23 production, lower than that of PTG or β-glucan (PBMC [4]; PBMC, 5 ng/ml IL-1β, 20 h, mean of 10 experiments) | IL-23 production by IL-1β alone relative to PTG and β-glucan (PBMC [4]; PBMC, physiologic concentrations of exogenous IL-1β)
IL-1ra: naturally occurring anti-inflammatory IL-1 receptor antagonist; recombinant human, purchased from R & D Systems | significantly inhibits | completely inhibited | markedly reduced | inhibits; also recorded: almost completely inhibited | ~60% | drastically inhibited | inhibited | significantly inhibited; also recorded: blocks | substantially inhibits | had no effect | – | – | – | – | – | – | – | – | – | –
β-D-glucan [β-glucan, reference compound] | – | – | – | – | – | – | – | – | – | – | confined to monocytes | dose-dependent production | substantially more IL-23; also recorded: more pronounced effect | 500 µg/mL | – | – | – | – | – | –
IL-1β: recombinant human IL-1β purchased from R & D Systems | – | – | – | – | – | – | – | – | – | had no effect | – | – | – | – | dose dependent manner | ~10 fold | equivalent concentrations | reduced levels | ~10 fold | much lower levels
